The target in test [1] is Muscarinic acetylcholine receptor M3 (Cavia porcellus, UniProt Q8VH26). In words: Antagonistic activity measured in isolated guinea pig […] (M3 receptor). To be noted: read-out: pA2 (converted). Type of test: functional, tissue-based.
Test [2] has as its target T1, Muscarinic acetylcholine receptor M4 (Rattus norvegicus, UniProt P08485).
T1 sequence (P08485 whole entry): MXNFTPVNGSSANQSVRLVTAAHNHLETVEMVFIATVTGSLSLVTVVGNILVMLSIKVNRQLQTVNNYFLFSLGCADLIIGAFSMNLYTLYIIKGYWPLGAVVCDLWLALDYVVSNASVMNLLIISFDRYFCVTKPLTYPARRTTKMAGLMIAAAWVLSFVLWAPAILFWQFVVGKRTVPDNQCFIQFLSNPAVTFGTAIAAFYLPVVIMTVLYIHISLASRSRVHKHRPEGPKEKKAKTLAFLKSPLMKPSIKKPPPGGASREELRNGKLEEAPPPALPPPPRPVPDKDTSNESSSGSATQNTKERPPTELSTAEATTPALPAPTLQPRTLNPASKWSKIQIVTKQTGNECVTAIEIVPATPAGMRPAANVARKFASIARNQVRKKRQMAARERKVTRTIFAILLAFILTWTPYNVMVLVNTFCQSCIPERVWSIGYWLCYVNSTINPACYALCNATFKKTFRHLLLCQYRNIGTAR
In words: Affinity constant measured against M4 muscarinic receptor rat NG108-15 cells. Type of test: cell-based.

Test [3] has as its target Muscarinic acetylcholine receptor M3 (Rattus norvegicus, UniProt P08483). Kind of test: Affinity constant measured against M3 muscarinic receptor in rat submaxillary gland. Type of test: tissue-based.
For test [4], the target named is T2, Muscarinic acetylcholine receptor M1 (Rattus norvegicus, UniProt P08482).
T2 sequence (P08482 whole entry): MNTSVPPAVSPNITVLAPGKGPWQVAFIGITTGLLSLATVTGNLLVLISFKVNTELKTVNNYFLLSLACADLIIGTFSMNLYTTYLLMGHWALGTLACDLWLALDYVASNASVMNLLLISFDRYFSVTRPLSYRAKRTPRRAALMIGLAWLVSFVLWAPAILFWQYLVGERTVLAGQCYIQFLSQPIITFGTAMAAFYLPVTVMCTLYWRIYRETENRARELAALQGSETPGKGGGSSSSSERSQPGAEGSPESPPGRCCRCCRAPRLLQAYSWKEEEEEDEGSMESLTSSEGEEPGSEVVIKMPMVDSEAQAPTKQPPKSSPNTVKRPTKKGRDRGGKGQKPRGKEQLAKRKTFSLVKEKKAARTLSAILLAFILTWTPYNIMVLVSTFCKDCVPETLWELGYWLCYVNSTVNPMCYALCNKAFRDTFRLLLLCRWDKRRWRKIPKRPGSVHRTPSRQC
In words: Affinity constant measured against M1 muscarinic receptor in rat cortex.

For test [5], the system named is Muscarinic acetylcholine receptors M2 & M3 (Cavia porcellus). Kind of test: Selectivity ratio between atrium (M2) and ileum (M3) was determined.
The target of test [6] is T3, Muscarinic acetylcholine receptor M2 (Homo sapiens, UniProt P08172).
T3 sequence (P08172 whole entry): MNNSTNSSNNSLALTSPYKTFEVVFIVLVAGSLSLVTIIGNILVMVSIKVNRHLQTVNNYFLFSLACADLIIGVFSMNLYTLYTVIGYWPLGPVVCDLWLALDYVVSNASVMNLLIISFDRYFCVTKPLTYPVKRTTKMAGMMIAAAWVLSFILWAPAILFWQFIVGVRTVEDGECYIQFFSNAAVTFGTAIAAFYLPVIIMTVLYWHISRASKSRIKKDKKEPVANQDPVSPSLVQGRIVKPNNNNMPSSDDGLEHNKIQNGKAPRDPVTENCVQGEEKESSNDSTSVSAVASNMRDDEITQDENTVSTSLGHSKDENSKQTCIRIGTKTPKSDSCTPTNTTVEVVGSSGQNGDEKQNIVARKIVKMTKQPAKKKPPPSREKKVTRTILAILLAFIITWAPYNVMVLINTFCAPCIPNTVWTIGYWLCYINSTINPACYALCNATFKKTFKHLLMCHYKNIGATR
In words: Antagonistic activity measured in isolated guinea pig left atrium (M2 receptor). Type of test: functional, tissue-based, Cavia porcellus, Cardiac atrium. To be noted: target entry is the homologue from another species; read-out: pA2 (converted).

For orientation: Ki means the equilibrium dissociation constant of an inhibitor or competing ligand from its target. The low end stands for tighter binding, the high end for weaker binding.

Muscarinic acetylcholine receptor M3 (Cavia porcellus, UniProt Q8VH26), sequence (Q8VH26 whole entry): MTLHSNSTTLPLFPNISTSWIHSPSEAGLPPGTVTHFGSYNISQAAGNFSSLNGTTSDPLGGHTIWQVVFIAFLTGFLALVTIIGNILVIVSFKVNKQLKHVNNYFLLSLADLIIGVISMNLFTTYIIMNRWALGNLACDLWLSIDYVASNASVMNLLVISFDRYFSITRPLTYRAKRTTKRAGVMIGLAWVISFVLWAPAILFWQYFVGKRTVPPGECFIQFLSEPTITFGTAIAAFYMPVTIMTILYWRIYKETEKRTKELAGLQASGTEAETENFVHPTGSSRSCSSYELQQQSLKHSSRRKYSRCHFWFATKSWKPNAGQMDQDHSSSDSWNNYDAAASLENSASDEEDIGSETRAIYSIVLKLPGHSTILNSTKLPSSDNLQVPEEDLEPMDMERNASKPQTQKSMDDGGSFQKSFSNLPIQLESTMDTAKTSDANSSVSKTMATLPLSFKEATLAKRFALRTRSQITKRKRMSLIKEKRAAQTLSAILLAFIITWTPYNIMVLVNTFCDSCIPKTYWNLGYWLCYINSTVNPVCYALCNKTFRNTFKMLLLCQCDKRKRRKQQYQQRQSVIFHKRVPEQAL
Muscarinic acetylcholine receptor M3 (Rattus norvegicus, UniProt P08483), sequence (P08483 whole entry): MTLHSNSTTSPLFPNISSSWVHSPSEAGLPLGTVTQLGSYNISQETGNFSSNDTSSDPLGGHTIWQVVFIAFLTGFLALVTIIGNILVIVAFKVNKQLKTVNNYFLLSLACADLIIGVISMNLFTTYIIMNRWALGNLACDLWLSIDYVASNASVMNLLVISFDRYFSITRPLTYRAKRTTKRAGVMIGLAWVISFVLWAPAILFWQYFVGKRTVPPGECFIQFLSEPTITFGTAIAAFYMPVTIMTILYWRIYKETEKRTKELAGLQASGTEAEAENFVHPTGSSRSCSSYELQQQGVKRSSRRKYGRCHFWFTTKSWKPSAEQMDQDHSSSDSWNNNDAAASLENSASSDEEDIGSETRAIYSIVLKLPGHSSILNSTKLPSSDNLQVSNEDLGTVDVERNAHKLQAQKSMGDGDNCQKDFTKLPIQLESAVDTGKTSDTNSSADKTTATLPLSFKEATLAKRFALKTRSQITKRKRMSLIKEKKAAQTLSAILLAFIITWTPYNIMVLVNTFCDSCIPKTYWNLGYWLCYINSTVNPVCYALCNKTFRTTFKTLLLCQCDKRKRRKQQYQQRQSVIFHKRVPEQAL

Consider `COc1ccccc1CNCCCCCCNCCCCCCCCNCCCCCCNCc1ccccc1OC` [METHOCTRAMINE], for which the Kb in test [1] was 479 nM. For the same molecule, the Ki in test [2] was 26.3 nM; in test [3], 1100 nM.
Turning to `CCN(CC)CCCCC1CCN(CC(=O)N2c3ccccc3C(=O)Nc3cccnc32)CC1`, the Kb in test [1] was 251 nM. Besides, the Ki in test [2] is 10 nM; in test [3] it was 158 nM; in test [4], 25.1 nM.
On to `COc1ccccc1CNCCCCCCN(C)CCCCCCCCN(C)CCCCCCNCc1ccccc1OC`, for which the Kb in test [1] was 603 nM; in test [6], 12.6 nM. Besides, the Selectivity ratio in test [5] amounted to 48.
For `CN(CCCCCCCCN(C)CCCCCCNCC(=O)N1c2ccccc2C(=O)Nc2cccnc21)CCCCCCNCC(=O)N1c2ccccc2C(=O)Nc2cccnc21`, the Kb was 126 nM in test [1] and 0.724 nM in test [6].
Take `CN(CCCCCCCCN(C)CCCCCCN(CC(=O)N1c2ccccc2C(=O)Nc2cccnc21)CC(=O)N1c2ccccc2C(=O)Nc2cccnc21)CCCCCCNCC(=O)N1c2ccccc2C(=O)Nc2cccnc21` [TRIPITRAMINE]: the Kb in test [1] is 282 nM. The Ki in test [2] is 11.7 nM; in test [3], 646 nM; in test [4] it was 23.4 nM.

(Values after ChEMBL document CHEMBL1126912 (J Med Chem, 1993).)
